Measurements taken from patent EP2819510B1, “ORGAN PERFUSION SYSTEM” (Rodos BioTarget GmbH, priority 2012, dated 2013).

Experiments:
CYP2C9 = CYP2C9 (Homo sapiens, UniProt P11712); test: CYP activity in perfused liver tissue, diclofenac substrate
CYP3A4 = CYP3A4 (Homo sapiens, UniProt P08684); test: CYP activity in perfused liver tissue, midazolam substrate
[1] = initial 30-min interval, dropped continuously thereafter
[2] = late (1-6 h), cirrhotic vs. non-cirrhotic liver

Chain of CYP2C9 (P11712 whole entry, the tested form may be a part): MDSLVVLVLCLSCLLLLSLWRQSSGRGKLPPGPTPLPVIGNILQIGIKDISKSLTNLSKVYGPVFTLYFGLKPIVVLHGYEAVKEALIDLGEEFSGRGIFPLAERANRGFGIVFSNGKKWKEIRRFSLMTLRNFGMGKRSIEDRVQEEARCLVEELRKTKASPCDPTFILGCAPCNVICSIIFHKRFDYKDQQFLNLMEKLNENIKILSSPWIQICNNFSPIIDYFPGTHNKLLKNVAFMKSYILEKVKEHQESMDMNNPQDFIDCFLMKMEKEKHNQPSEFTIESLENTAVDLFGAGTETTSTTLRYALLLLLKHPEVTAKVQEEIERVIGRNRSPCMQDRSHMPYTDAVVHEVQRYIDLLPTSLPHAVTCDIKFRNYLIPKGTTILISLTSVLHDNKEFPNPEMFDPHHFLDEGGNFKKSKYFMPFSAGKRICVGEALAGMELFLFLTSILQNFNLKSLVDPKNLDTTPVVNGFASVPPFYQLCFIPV
Chain of CYP3A4 (P08684 whole entry, the tested form may be a part): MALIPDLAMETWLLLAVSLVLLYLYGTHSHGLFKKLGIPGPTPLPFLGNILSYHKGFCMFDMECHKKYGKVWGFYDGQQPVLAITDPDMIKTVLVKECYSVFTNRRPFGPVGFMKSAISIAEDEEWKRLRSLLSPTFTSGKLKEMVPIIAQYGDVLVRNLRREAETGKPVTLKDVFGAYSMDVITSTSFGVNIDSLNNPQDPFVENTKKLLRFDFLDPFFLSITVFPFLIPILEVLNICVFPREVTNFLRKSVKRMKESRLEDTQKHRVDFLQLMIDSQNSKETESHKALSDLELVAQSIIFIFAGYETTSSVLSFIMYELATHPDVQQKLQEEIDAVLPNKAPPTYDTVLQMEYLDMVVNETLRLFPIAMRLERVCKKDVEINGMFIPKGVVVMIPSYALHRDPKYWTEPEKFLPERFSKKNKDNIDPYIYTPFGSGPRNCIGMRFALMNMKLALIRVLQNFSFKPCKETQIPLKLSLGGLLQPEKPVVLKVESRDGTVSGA

Row | SMILES | formation of phase-I metabolite (CYP2C9; [1]) | AUC of phase-I product, CL tissue higher than NC tissue (CYP2C9; [2]) [%] | formation of phase-I metabolite (CYP3A4; [1]) | AUC of phase-I product, CL tissue higher than NC tissue (CYP3A4; [2]) [%]
1 | O=C(O)Cc1ccccc1Nc1c(Cl)cc(O)cc1Cl [OH-diclofenac, 4'-hydroxydiclofenac] | formed quite rapidly | 26.9 |  | 
2 | OCc1ncc2n1-c1ccc(Cl)cc1C(c1ccccc1F)=NC2 [OH-midazolam, 1'-hydroxymidazolam] |  |  | formed quite rapidly | 53.8
